Where “and” joins values, the source holds several entries; their conditions need not be identical. Equal entries are not always repeated. Entries after “also recorded” stand apart in the source; their conditions may differ. Where two headings read alike, the source gives them in different places.

Data set [1] relates to zebrafish embryos. As to the kind of experiment: In vivo inhibition of melanogenesis assay. The conditions noted are these: embryos treated 24 to 48 hpf, ranking: most potent, followed by, weakest, Figure 5: MAM 70, F33 70, F38-42 10, F43 10, 1/5/6/7 50, 2 7, 11 10 μg/mL.
For data set [2], the target named is T1, mushroom tyrosinase (Agaricus bisporus, UniProt C7FF04).
T1 construct: purchased Sigma-Aldrich
T1 sequence (C7FF04 1-392 limits assumed): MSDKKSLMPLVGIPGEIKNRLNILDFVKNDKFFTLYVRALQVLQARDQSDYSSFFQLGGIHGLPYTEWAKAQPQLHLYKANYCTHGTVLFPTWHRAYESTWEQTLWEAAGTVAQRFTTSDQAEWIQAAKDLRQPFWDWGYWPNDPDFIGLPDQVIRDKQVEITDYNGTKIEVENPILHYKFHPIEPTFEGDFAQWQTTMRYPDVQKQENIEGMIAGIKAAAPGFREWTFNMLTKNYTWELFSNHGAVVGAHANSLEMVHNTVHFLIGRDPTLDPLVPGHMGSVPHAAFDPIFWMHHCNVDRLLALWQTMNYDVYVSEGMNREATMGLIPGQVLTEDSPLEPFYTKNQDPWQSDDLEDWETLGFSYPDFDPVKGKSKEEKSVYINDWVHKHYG
Put plainly: Tyrosinase inhibition assay (oxidation of L-DOPA, diphenolase activity).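 As to all read-outs here: dopachrome formation from L-DOPA by mushroom tyrosinase in phosphate buffer, compound preincubated with enzyme 10 min at 25 °C, inhibition versus sample-free control, enzyme-free blanks subtracted.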 It counts as biochemical. The conditions noted are these: for inhibition at 60 µM: read-out: Tyrosinase Inhibition % ± STD (60 μM); for inhibition at 300 µM: read-out: Tyrosinase Inhibition % ± STD (300 μM); for fold more potent tyrosinase inhibition than kojic acid: ratio of IC50 values vs reference kojic acid.

Data set [3] deals with B16F10 cells. As to the kind of experiment: MTT cytotoxicity assay. The format is cell-based, Mouse. The conditions noted are these: high concentrations. How it is done: Mouse skin melanoma (B16F10) cells were obtained from the American Tissue Culture Collection (Manassas, VA, USA) and were maintained in Dulbecco's modified Eagle’s medium (Gibco, Thermo Fischer Scientific, Waltham, MA, USA), supplemented with 10% (v/v) fetal bovine serum (Gibco, Thermo Fischer Scientific) and 2 mM glutamine (Gibco, Thermo Fischer Scientific) in a humidified incubator at 5% CO2 and 37 °C.
MTT cytotoxicity assay was performed as described previously. Briefly, B16F10 cells were cultured at 96-wellmicroplates (5000 cells/well). After 24 h the cells were treated with different concentrations of the extracts (in control cells an appropriate amount of DMSO was added). The MTT solution (MTT, Sigma-Aldrich) (1 mg/mL in serum free, phenol red free medium) was added 48 h after the addition of test extracts. After 4 h, the MTT solution was discarded and isopropanol was added to dissolve the formazan crystals. Absorbance was recorded at 570 nm using a microplate reader (EZ Read 400 ELISA microplate reader, Biochrom, Cambridge, UK). Survival of non-treated cells was set to 100%.

Where [4] appears, read: compound at 60 μM, two independent experiments.
Where [5] appears, read: compound at 300 μM, two independent experiments.
Where [6] appears, read: diphenolase activity, three independent experiments, read-out: Tyrosinase Inhibition IC50 ± STD.

For `Oc1cccc(CCc2ccc(O)cc2O)c1` [2,4,3′-Trihydroxydihydrostilbene (7), 2,4,3′-Trihydroxydihydrostilbene], the “melanogenesis inhibition on zebrafish embryos (in words)” value (shortened to “melanogenesis inhibition”) in data set [1] is reported as “significantly suppress in vivo melanogenesis; also recorded: most potent; also recorded: significantly suppressed in vivo melanogenesis”. Further, in data set [2] (setting [4]), the inhibition at 60 µM stood at 96.3 ± 0.5%. Besides, the inhibition at 300 µM in data set [2] (setting [5]) was found to be 97.8 ± 0.1%. Further, the IC50 in data set [2] (setting [6]) was 0.8 ± 0.15 µM. Moreover, in data set [2], the “fold more potent tyrosinase inhibition than kojic acid” value was ~ 20 fold and 20 fold. Further, in data set [3], the “cytotoxicity in cells (in words)” value is reported as “non-cytotoxic in high concentrations”.
With `O=Cc1ccc(O)cc1O` [2,4-Dihydroxybenzaldehyde (9), 2,4-dihydroxybenzaldehyde], the inhibition at 300 µM in data set [2] (setting [5]) turned out to be 4.9 ± 0.3%.
Regarding `Oc1cc(O)cc(CCc2ccc(O)cc2O)c1` [Dihydrooxyresveratrol (5), Dihydrooxyresveratrol], the “melanogenesis inhibition” value in data set [1] (listed as dihydrooxyresveratrol) is listed as “only partially inhibited the melanogenesis”. For the same compound, in data set [2], the IC50 came out at 0.3 ± 0.05 µM, the “fold more potent tyrosinase inhibition than kojic acid” value is recorded as ~ 50 fold, the inhibition at 60 µM turned out to be 97.6 ± 0.2% and the inhibition at 300 µM was found to be 98.2 ± 0.5%.
As for `CC(C)=CCc1c(-c2ccc(O)cc2O)oc2c(CC=C(C)C)c(O)cc(O)c2c1=O` [Kuwanon C (2), kuwanon C], in data set [1], the “melanogenesis inhibition” value was “weakest inhibitor of melanogenesis”. Further, in data set [2], the concentration for half-maximal inhibition (IC50) came out at 76.2 ± 1.1 µM. The inhibition at 60 µM in data set [2] (setting [4]) was found to be 46.5 ± 1.3%. In addition, the inhibition at 300 µM in data set [2] (setting [5]) stood at 75.6 ± 1.2%.
As to `CC(C)=CCc1c(-c2ccc(O)cc2O)oc2c(C3C=C(C)CC(c4ccc(O)cc4O)C3C(=O)c3ccc(O)cc3O)c(O)cc(O)c2c1=O` (stereo not drawn) [Kuwanon G (12), kuwanon G], in data set [2], the IC50 was 27.5 ± 1.2 µM, the inhibition at 60 µM was 59.1 ± 1.4% and the inhibition at 300 µM was 77.8 ± 2.8%.
Consider `CC(C)=CCc1c(O)ccc(C(=O)C2C(c3c(O)cc(O)c4c(=O)c(CC=C(C)C)c(-c5ccc(O)cc5O)oc34)C=C(C)CC2c2ccc(O)cc2O)c1O` (stereo not drawn) [Kuwanon H (8), kuwanon H], for which, in data set [2], the half-maximal inhibitory concentration (IC50) is over 100 µM. Also, in data set [2] (setting [4]), the inhibition at 60 µM stood at 46 ± 2.9%. The inhibition at 300 µM in data set [2] (setting [5]) was 49 ± 2.6%.
The matching figures for `Oc1cc(O)cc(-c2cc3ccc(O)cc3o2)c1` [Moracin M (11), moracin M]: 8 ± 0.6 µM, 61.3 ± 1.2% and 87.2 ± 0.5%.
For `CC(C)=CCc1c(-c2ccc(O)cc2O)oc2c3c(cc(O)c2c1=O)OC(C)(C)C=C3` [Morusin (10), morusin] the same measures were over 100 µM, 31 ± 3.2% and 49.9 ± 2.2%.
For `OC[C@H]1O[C@@H](Oc2cc(O)cc(/C=C/c3ccc(O[C@@H]4O[C@H](CO)[C@@H](O)[C@H](O)[C@H]4O)cc3O)c2)[C@H](O)[C@@H](O)[C@@H]1O` [Mulberroside A (3), mulberroside A] the same measures were over 100 µM, 43.1 ± 0.7% and 58.3 ± 1.4%.
In the case of `Oc1cc(O)cc(/C=C/c2ccc(O)cc2O)c1` [Oxyresveratrol (1), oxyresveratrol], the “melanogenesis inhibition” value in data set [1] is “significantly suppress in vivo melanogenesis; also recorded: most potent”.
Compound `Oc1cccc(O)c1` [Resorcinol (4), resorcinol] gave an IC50 in data set [2] of 163 ± 18.2 µM. Also, in data set [2] (setting [4]), the inhibition at 60 µM is 38 ± 1.1%. Moreover, the inhibition at 300 µM in data set [2] (setting [5]) worked out at 60.4 ± 1%.
On to `O=C1c2c(O)cc(O)cc2OC(c2ccc(O)cc2O)C1O` (stereo not drawn) [trans-Dihydromorin (6), trans-dihydromorin], for which the “melanogenesis inhibition” value in data set [1] is on record as “significantly suppress in vivo melanogenesis; also recorded: most potent”. The inhibition at 60 µM in data set [2] (setting [4]) was found to be 73.1 ± 0.6%. For the same compound, the inhibition at 300 µM in data set [2] (setting [5]) is 94.3 ± 0.1%. The IC50 in data set [2] (setting [6]) is 9.4 ± 1.3 µM.

The values above are taken from publication PMC6154579, “Anti-Melanogenic Properties of Greek Plants. A Novel Depigmenting Agent from Morus alba Wood” (Molecules : A Journal of Synthetic Chemistry and Natural …, 2017).
